In ChEMBL document CHEMBL5257089, “Gamabufotalin Induces Apoptosis and Cytoprotective Autophagy through the mTOR Signaling Pathway in Hepatocellular Carcinoma” (J Nat Prod, 2023):
Calls of active or inactive are those of the source. No cut-off for these calls is given here.

Tests used:
[1] = system: Hep 3B2; experiment: Induction of autophagic flux in human Hep3B cells harbouring mCherry-egfp-LC3 assessed as increase in yellow puncta ratio at 10 nM by fluorescence imaging based assay; format: functional, cell-based
[2] = system: Hep 3B2; experiment: Induction of apoptosis in human Hep3B cells assessed as late apoptotic cells at 10 nM incubated for 48 hrs in presence of gamabufotalin by Annexin V-FITC/PI staining based flow cytometry method (reference value: 3.5%); format: functional
[3] = system: Huh-7; experiment: Induction of apoptosis in human Huh-7 cells assessed as increase in cleaved caspase-3 level at 10 nM incubated for 48 hrs in presence of gamabufotalin by immunoblot analysis; format: functional, cell-based
[4] = system: Hep 3B2; experiment: Induction of autophagy in human Hep3B cells assessed as rescue of mTOR phosphorylation level at upto 10 nM incubated for 48 hrs in presence of gamabufotalin by immunoblot method; format: functional, cell-based
[5] = system: Huh-7; experiment: Antiproliferative activity against human Huh-7 cells assessed as cell viability incubated for 24 hrs by CCK-8; format: functional, cell-based; settings: Huh-7, 24 h
[6] = system: Hep 3B2; experiment: Induction of apoptosis in human Hep3B cells assessed as early apoptotic cells at 25 nM incubated for 48 hrs by Annexin V-FITC/PI staining based flow cytometry method (reference value: 3.9%); format: functional
[7] = system: Huh-7; experiment: Induction of apoptosis in human Huh-7 cells assessed as necrotic cells at 15 nM incubated for 48 hrs by Annexin V-FITC/PI staining based flow cytometry method (reference value: 0.7%); format: functional
[8] = system: Hep 3B2; experiment: Induction of apoptosis in human Hep3B cells assessed as increase in cleaved caspase-3 expression at upto 25 nM incubated for 48 hrs by Western blot analysis; format: functional, cell-based
[9] = system: Hep 3B2; experiment: Induction of apoptosis in human Hep3B cells assessed as […] expression at upto 25 nM incubated for 48 hrs by Western blot analysis; format: functional, cell-based
[10] = system: Hep 3B2; experiment: Induction of apoptosis in human Hep3B cells assessed as late apoptotic cells at 25 nM measured after 48 hrs by annexin V-FITC/Propidium iodide staining based flow cytometric analysis (reference value: 2.4%); format: functional
[11] = system: Hep 3B2; experiment: Induction of apoptosis in human Hep3B cells assessed as late apoptotic cells at 25 nM measured after 48 hrs in presence of Z-VAD-FMK by annexin V-FITC/Propidium iodide staining based flow cytometric analysis (reference value: 2.4%); format: functional
[12] = system: Huh-7; experiment: Induction of apoptosis in human Huh-7 cells assessed as early apoptotic cells at 25 nM measured after 48 hrs by annexin V-FITC/Propidium iodide staining based flow cytometric analysis (reference value: 2.2%); format: functional
[13] = system: Huh-7; experiment: Induction of apoptosis in human Huh-7 cells assessed as necrotic cells at 25 nM measured after 48 hrs in presence of z-VAD-FMK by annexin V-FITC/Propidium iodide staining based flow cytometric analysis (reference value: 0.0%); format: functional
[14] = system: Hep 3B2; experiment: Induction of autophagic flux in human Hep3B cells assessed as increase in high electron density vesicles at 25 nM incubated for 48 hrs by transmission electron microscopic analysis; format: functional, cell-based
[15] = system: Huh-7; experiment: Induction of autophagic flux in human Huh-7 cells assessed as increase in LC3-I expression at upto 25 nM incubated for 48 hrs by Western blot analysis; format: functional, cell-based
[16] = system: Huh-7; experiment: Induction of autophagic flux in human Huh-7 cells assessed as rescue of p62 at 25 uM incubated for 48 hrs in presence of chloroquine by Western blot analysis; format: functional, cell-based
[17] = system: Hep 3B2; experiment: Induction of apoptosis in human Hep3B cells assessed as early apoptotic cells at 25 nM incubated for 48 hrs in presence of 4,6-dimorpholino-N-(4-nitrophenyl)-1,3,5-triazin-2-amine by Annexin V-FITC/PI staining based flow cytometry method (reference value: 1.3%); format: functional
[18] = system: Huh-7; experiment: Induction of apoptosis in human Huh-7 cells assessed as early apoptotic cells at 25 nM incubated for 48 hrs by Annexin V-FITC/PI staining based flow cytometry method (reference value: 4.3%); format: functional
[19] = system: Hep 3B2; experiment: Induction of apoptosis in human Hep3B cells assessed as upregulation of cleaved caspase-3 level […] incubated for 48 hrs in presence of 4,6-dimorpholino-N-(4-nitrophenyl)-1,3,5-triazin-2-amine by immunoblot analysis; format: functional, cell-based
[20] = system: Huh-7; experiment: Induction of apoptosis in human Huh-7 cells assessed as upregulation of caspase-3 level […] incubated for 48 hrs in presence of 4,6-dimorpholino-N-(4-nitrophenyl)-1,3,5-triazin-2-amine by immunoblot analysis; format: functional, cell-based
[21] = system: Hep 3B2; experiment: Induction of autophagy in human Hep3B cells harbouring mCherry-egfp-LC3 assessed as reduction in yellow puncta ratio at 25 nM incubated for 15 mins in presence of 4,6-dimorpholino-N-(4-nitrophenyl)-1,3,5-triazin-2-amine by laser scanning confocal microscopic analysis; format: functional, cell-based
[22] = system: Huh-7; experiment: Induction of autophagy in human Huh-7 cells harbouring mCherry-egfp-LC3 assessed as reduction in yellow puncta ratio at 25 nM incubated for 15 mins in presence of 4,6-dimorpholino-N-(4-nitrophenyl)-1,3,5-triazin-2-amine by laser scanning confocal microscopic analysis; format: functional, cell-based
[23] = system: Huh-7; experiment: Induction of autophagy in human Huh-7 cells assessed as reduction in autophagic vesicles at 25 nM incubated for 48 hrs in presence of 4,6-dimorpholino-N-(4-nitrophenyl)-1,3,5-triazin-2-amine by transmission electron microscopy based analysis; format: functional, cell-based
[24] = system: Huh-7; experiment: Induction of autophagy in human Huh-7 cells assessed as restoration of ULK1 phosphorylation expression at 25 uM incubated for 48 hrs in presence of 4,6-dimorpholino-N-(4-nitrophenyl)-1,3,5-triazin-2-amine by immunoblot analysis; format: functional, cell-based
[25] = system: Huh-7; experiment: Induction of autophagy in human Huh-7 cells assessed as upregulation of p62 at 25 uM incubated for 48 hrs in presence of 4,6-dimorpholino-N-(4-nitrophenyl)-1,3,5-triazin-2-amine by immunoblot analysis; format: functional, cell-based
[26] = system: Hep 3B2; experiment: Induction of autophagy in human Hep3B cells assessed as downregulation of LC3II/LC3I ratio at 25 uM incubated for 48 hrs in presence of 4,6-dimorpholino-N-(4-nitrophenyl)-1,3,5-triazin-2-amine by immunoblot analysis; format: functional, cell-based
[27] = system: Hep 3B2; experiment: Induction of autophagic flux in human Hep3B cells harbouring mCherry-egfp-LC3 assessed as reduction in number of red puncta ratio at 25 nM incubated for 15 mins in presence of chloroquine by laser scanning confocal microscopic analysis; format: functional, cell-based
[28] = system: Hep 3B2; experiment: Antitumor activity against human Hep3B cells xenografted in nude mouse model assessed as decrease in tumor volume at 5 mg/kg,ip administered every second day for 3 weeks by vernier caliper method; format: functional, organism-based
[29] = system: Hep 3B2; experiment: Antitumor activity against human Hep3B cells xenografted in nude mouse model assessed as upregulation of LC3 II expression at 5 mg/kg,ip administered every second day for 3 weeks by Western blot analysis; format: functional, organism-based
[30] = system: Hep 3B2; experiment: Antitumor activity against human Hep3B cells xenografted in nude mouse model assessed as downregulation of ULK1 phosphorylation expression expression at 5 mg/kg,ip administered every second day for 3 weeks by Western blot analysis; format: functional, organism-based
[31] = Toxicity in mouse assessed as effect on kidney at 5 mg/kg,ip administered every second day for 3 weeks by H and E staining based microscopic method; format: organism-based; settings: in vivo, 504 h

CCN(CC)CCCC(C)Nc1ccnc2cc(Cl)ccc12 (stereo unspecified) [CHLOROQUINE]
Activity [1]: Active | Activity [2]: 17.4% | Activity [3]: Active | Activity [4]: Active

C[C@]12CC[C@H](O)C[C@H]1CC[C@@H]1[C@@H]2[C@H](O)C[C@]2(C)[C@@H](c3ccc(=O)oc3)CC[C@]12O [GAMABUFOTALIN]
IC50 [5]: 23 nM | Activity [6]: 9.3% | Activity [7]: 4% | Activity [8]: Active | Activity [9]: Active | Activity [10]: 13.2% | Activity [11]: 3.5% | Activity [12]: 6.6% | Activity [13]: 0.3% | Activity [14]: Active | Activity [15]: Active | Activity [16]: Active | Activity [17]: 10.9% | Activity [18]: 8.7% | Activity [19]: Active | Activity [20]: Active | Activity [21]: Active | Activity [22]: Active | Activity [23]: Active | Activity [24]: Active | Activity [25]: Active | Activity [26]: Active | Activity [27]: Active | Activity [28]: Active | Activity [29]: Active | Activity [30]: Active | Activity [31]: Non-Toxic
